Test results reported in paper PMC10974284, “Discovery of Novel 4-Hydroxyquinazoline Derivatives: In Silico, In Vivo and In Vitro Studies Using Primary PARPi-Resistant Cell Lines” (Molecules, 2024).
Where two headings read alike, the source gives them in different places.

Experiments:
HCT-15 cell lines [1] = assay: MTT cytotoxicity assay, HCT-15; type: cell-based, human; conditions: Homo sapiens, HCT-15
Description: (§1) After treatment with target compounds at the different concentrations, MTT was added and the cells were incubated for another 4 h. The IC50 values of the selected compounds were evaluated by the same method. The cells were treated with compounds at different concentrations. The OD values were detected using a microplate reader at 570 nm.

HCC1937 cell lines [2] = assay: MTT cytotoxicity assay, HCC1937; type: cell-based, human; conditions: Homo sapiens, HCC1937
Description: as §1

MDA-MB-231 = assay: MTT cytotoxicity assay, MDA-MB-231; type: cell-based; conditions: Homo sapiens
Description: as §1

LO2 = assay: MTT cytotoxicity assay, LO2 normal hepatocytes; type: cell-based; conditions: L02, 72 h; 3 days, human normal hepatocytes
Description: as §1

NCM460 = assay: MTT cytotoxicity assay, NCM460 normal colonic epithelial cells; type: cell-based; conditions: NCM460, 72 h; 3 days, human normal colonic epithelial cells
Description: as §1

HCT-15 cell lines [3] = assay: Cell apoptosis assay (Annexin V-FITC/PI flow cytometry), HCT-15; type: cell-based, human; conditions: HCT-15, 20 μM, 48 h
Description: (§2) The cells were seeded in 6-well plates with 1 × 10^5 cells per well and incubated for 24 h. […] The cells were digested, collected, and resuspended in the binding buffer. After adding 5 μL of Annexin V-FITC and 10 μL of propidium iodide (PI), the cells were incubated for 30 min away from light; this was followed by detection using flow cytometry (Beckman Coulter).

HCC1937 cell lines [4] = assay: Cell apoptosis assay (Annexin V-FITC/PI flow cytometry), HCC1937; type: cell-based, human; conditions: HCC1937, 20 μM, 48 h
Description: as §2

[5] = test system: PAR formation in HCT-15 cell lines; assay: Immunofluorescence analysis of PAR, H2O2-treated HCT-15; type: cell-based, human
Description: (§3) The cells were seeded in 6-well plates with 1 × 10^5 cells per well and incubated for 24 h. […] Cells were fixed with addition of 4% paraformaldehyde, and immunostaining blocking solution was added at room temperature for 20 min. […] Then, a […] staining solution (DAPI) was added for staining, the […] staining solution was aspirated, and the well washed 3 times with washing solution. Photographs were taken through a Leica SP8 Laser confocal microscope.

[6] = test system: PAR formation in HCC1937 cell lines; assay: Immunofluorescence analysis of PAR, H2O2-treated HCC1937; type: cell-based, human
Description: as §3

[7] = test system: γH2AX in HCT-15 cell lines; assay: Immunofluorescence analysis of γH2AX, HCT-15; type: cell-based, human; conditions: HCT-15, 10 μM
Description: as §3

[8] = test system: γH2AX in HCC1937 cell lines; assay: Immunofluorescence analysis of γH2AX, HCC1937; type: cell-based, human; conditions: HCC1937, 10 μM
Description: as §3

[9] = test system: Caspase-3, cleaved Caspase-3, Bax, Bcl-2 in HCT-15 cell lines; assay: Western blot of apoptosis-related proteins, HCT-15; type: cell-based, human; conditions: HCT-15, 1.25-20 μM, 48 h
Description: (§4) Subsequently, the cells were lysed with RIPA lysis buffer and protein samples were prepared. Denatured proteins were separated by 10% SDS-PAGE electrophoresis and transferred to a PVDF membrane. The membrane was blocked with 5% blocking solution for 2 h. The membrane was incubated overnight at 4 °C with specific primary antibody. Then, the membrane was rinsed three times with TBST, secondary antibody was added, and the membrane was incubated at room temperature for 2 h. Finally, the target protein was detected by the ECL detection system. The relative expression was quantified using Image J (National Institutes of Health).

[10] = test system: Caspase-3, cleaved Caspase-3, Bax, Bcl-2 in HCC1937 cell lines; assay: Western blot of apoptosis-related proteins, HCC1937; type: cell-based, human; conditions: HCC1937, 1.25-20 μM, 48 h
Description: as §4

HCT-15 cell lines [11] = assay: Mitochondrial membrane potential assay (JC-1), HCT-15; type: cell-based, human
Text: (§5) Cell culture methods were the same as for the cell apoptosis assay.
(§6) The experimental operation was the same as ROS, only replacing the DCFH-DA probe with the JC-1 probe.

HCC1937 cell lines [12] = assay: Mitochondrial membrane potential assay (JC-1), HCC1937; type: cell-based, human
Text: as §5, §6

[13] = test system: HCT-15 nude mouse xenograft model; assay: In vivo anti-tumor study
Description: The tumor volume and mouse body weight were recorded, and the corresponding tissues were analyzed.
All experimental procedures were performed according to the National Institutes of Health guidelines for the use of laboratory animals, and an application was made to the Institutional Animal Care and Use Committee, Shandong Second Medical University, which was approved. […] When the tumor volume reached about 80–150 mm^3, the mice were randomly divided into three groups (the control group, and different concentration administration group) and administered for 14 consecutive days, while the tumor volume was measured once every two days and the body weight of the mice was recorded. At the end stage, mice were killed by neck-breaking and tumor tissues were removed. All the photographs were taken through a Leica SP8 Laser confocal microscope.

[14] = Acute toxicity study in mice; type: in vivo, mouse; conditions: single intraperitoneal injection 800 mg/kg, monitored 14 days
Description: The mice were administered a single intraperitoneal injection dose of 800 mg/kg and were constantly monitored for 14 days.

Cc1ccc(Cl)cc1NC(=O)N1C2CC1CN(Cc1nc3ccccc3c(=O)[nH]1)C2 [B1, N-(5-chloro-2-methylphenyl)-3-((4-oxo-3,4-dihydroquinazolin-2-yl)methyl)-3,6-diazabicyclo[3.1.1]heptane-6-carboxamide]
IC50 (HCT-15 cell lines [1]; 72 h (3-Days) drug exposure, MTT, read-out: IC50 HCT-15): 2.89 ± 0.78 µM
IC50 (HCT-15 cell lines [1]; 7 days drug treatment, read-out: IC50 HCT-15 7-Days): 0.13 ± 0.03 µM
IC50 (HCC1937 cell lines [2]; 72 h (3-Days) drug exposure, MTT, read-out: IC50 HCC1937): 3.26 ± 0.38 µM
IC50 (HCC1937 cell lines [2]; 7 days drug treatment, read-out: IC50 HCC1937 7-Days): 0.17 ± 0.04 µM
IC50 (MDA-MB-231; MDA-MB-231, 72 h, 3 days, read-out: IC50 MDA-MB-231 3-Days): 11.3 ± 1.93 µM
IC50 (MDA-MB-231; MDA-MB-231, 7 days, read-out: IC50 MDA-MB-231 7-Days): 1.33 ± 0.51 µM
IC50 (LO2): > 100 µM
IC50 (NCM460): > 100 µM
apoptosis rate (HCT-15 cell lines [3]): 73.58%
apoptosis rate (HCC1937 cell lines [4]): 53.14%
PAR aggregation (green fluorescence) ([5]; H2O2-treated HCT-15, 1.25 μM): green fluorescence obviously weakened
PAR aggregation (green fluorescence) ([5]; H2O2-treated HCT-15, 5 μM): green fluorescence almost disappeared
PAR aggregation (green fluorescence) ([6]; H2O2-treated HCC1937, 1.25 μM): green fluorescence obviously weakened
PAR aggregation (green fluorescence) ([6]; H2O2-treated HCC1937, 5 μM): green fluorescence almost disappeared
expression of γH2AX [7]: significantly increased
expression of γH2AX [8]: significantly increased
Bax expression [9]: considerably increased Bax expression
Bcl-2 expression [9]: decreased Bcl-2 expression
Caspase-3 activation [9]: activated Caspase-3
Bax expression [10]: considerably increased Bax expression
Bcl-2 expression [10]: decreased Bcl-2 expression
Caspase-3 activation [10]: activated Caspase-3
mitochondrial membrane potential (JC-1 fluorescence) (HCT-15 cell lines [11]; HCT-15, 5 μM): green fluorescence began to change significantly
mitochondrial membrane potential (JC-1 fluorescence) (HCT-15 cell lines [11]; HCT-15, 20 μM): the intensity of red fluorescence was hardly visible
mitochondrial membrane potential (JC-1 fluorescence) (HCC1937 cell lines [12]; HCC1937, 5 μM): green fluorescence began to change significantly
mitochondrial membrane potential (JC-1 fluorescence) (HCC1937 cell lines [12]; HCC1937, 20 μM): the intensity of red fluorescence was hardly visible
tumor cell morphology (H&E) ([13]; 10 mg/kg intraperitoneally once daily for 14 days): irregular morphological alterations and severe vacuolization
xenograft tumor growth (tumor volume and weight) ([13]; 25 mg/kg intraperitoneally once daily for 14 days): significantly inhibited xenograft tumor growth
xenograft tumor growth (tumor volume and weight) ([13]; 50 mg/kg intraperitoneally once daily for 14 days): significantly inhibited xenograft tumor growth
body weight, acute toxicity [14]: no significant reduction in body weight
major organs (H&E), acute toxicity [14]: no significant changes in heart, liver, spleen, lung, or kidney
